Results reported in ChEMBL document CHEMBL1201862, “PubChem BioAssay data set” (2004).
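48-hour exposure; five concentrations; linearly interpolated endpoints. GI50: concentration for 50% inhibition of growth.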 Active and inactive are the calls of the source. No stated cut-off is given here; in the data, active = GI50 up to about 1.1 µM and inactive = higher.

Assays:
Test in all cases: inhibition of tumour cell growth, NCI panel, 48 h
SW-620 = system: SW-620
A549 = system: A549
SF-295 = system: SF-295
HOP-62 = system: HOP-62
SNB-75 = system: SNB-75
HT-29 = system: HT-29
OVCAR-3 = system: OVCAR-3
XF498 = system: XF498
A498 = system: A498
HOP-92 = system: HOP-92
NCI-H460 = system: NCI-H460
OVCAR-8 = system: OVCAR-8
OVCAR-4 = system: OVCAR-4
SNB-78 = system: SNB-78
U-251 = system: U-251
UACC-257 = system: UACC-257
NCI-H522 = system: NCI-H522
DMS-273 = system: DMS-273
UO-31 = system: UO-31
HCC 2998 = system: HCC 2998
COLO 205 = system: COLO 205
RPMI-8226 = system: RPMI-8226
RXF 631 = system: RXF 631
NCI-H23 = system: NCI-H23
Malme-3M = system: Malme-3M
HCT-116 = system: HCT-116
LXFL 529 = system: LXFL 529
M19-MEL = system: M19-MEL
SN12C = system: SN12C
M14 = system: M14
TK-10 = system: TK-10
SK-MEL-5 = system: SK-MEL-5
KM12 = system: KM12
RXF 393 = system: RXF 393
IGROV-1 = system: IGROV-1
OVCAR-5 = system: OVCAR-5
SK-MEL-28 = system: SK-MEL-28
UACC-62 = system: UACC-62
CCRF-CEM = system: CCRF-CEM
HL-60 = system: HL-60
EKVX = system: EKVX
MOLT-4 = system: MOLT-4
SK-MEL-2 = system: SK-MEL-2
DMS-114 = system: DMS-114
LOX IMVI = system: LOX IMVI
K562 = system: K562
NCI-H226 = system: NCI-H226
ACHN = system: ACHN
786-0 = system: 786-0
SF-268 = system: SF-268
DLD-1 = system: DLD-1
SR = system: SR
CAKI-1 = system: CAKI-1
SNB-19 = system: SNB-19
KM-20L2 = system: KM-20L2
HOP-18 = system: HOP-18
SF-539 = system: SF-539
HCT-15 = system: HCT-15
SK-OV-3 = system: SK-OV-3
DU-145 = system: DU-145
PC-3 = system: PC-3
BT-549 = system: BT-549
MDA-MB-435 = system: MDA-MB-435
MDA-MB-231 = system: MDA-MB-231
Hs-578T = system: Hs-578T
MDA-N = system: MDA-N
MCF7 = system: MCF7
T47D = system: T47D

Measured: GI50

CC(C)NC(=O)CCN(C(=O)O)S(=O)(=O)c1ccc(NC(=O)c2ccccc2)cc1
inactive: SW-620 27.7 µM | A549 > 50.1 µM | SF-295 > 100 µM | HOP-62 > 100 µM | SNB-75 > 100 µM | HT-29 > 58.1 µM | OVCAR-3 > 100 µM | XF498 > 100 µM | A498 > 100 µM | HOP-92 > 100 µM | NCI-H460 > 43.2 µM | OVCAR-8 > 54.5 µM | OVCAR-4 > 100 µM | SNB-78 > 100 µM | U-251 15.6 µM | UACC-257 > 51.9 µM | NCI-H522 > 100 µM | DMS-273 > 42.7 µM | UO-31 > 100 µM | HCC 2998 > 100 µM | COLO 205 > 40.6 µM | RPMI-8226 34.8 µM | RXF 631 > 100 µM | NCI-H23 > 100 µM | Malme-3M > 100 µM | HCT-116 > 39.7 µM | LXFL 529 > 93.8 µM | M19-MEL > 53.3 µM | SN12C > 100 µM | M14 > 100 µM | TK-10 > 100 µM | SK-MEL-5 > 100 µM | KM12 > 65.6 µM | RXF 393 > 100 µM | IGROV-1 > 100 µM | OVCAR-5 > 100 µM | SK-MEL-28 > 100 µM | UACC-62 > 45.5 µM | CCRF-CEM > 43.9 µM | HL-60 > 48.8 µM | EKVX > 100 µM | MOLT-4 > 41.2 µM | SK-MEL-2 > 100 µM | DMS-114 > 39.4 µM | LOX IMVI 39.9 µM | K562 > 43.7 µM | NCI-H226 > 100 µM | ACHN > 81.3 µM | 786-0 > 79.6 µM | SF-268 > 54.5 µM | DLD-1 > 41.6 µM | SR > 52.8 µM | CAKI-1 > 100 µM | SNB-19 > 100 µM | KM-20L2 > 100 µM | HOP-18 > 100 µM | SF-539 24.6 µM | SK-OV-3 > 100 µM
> 42.2 µM: HCT-15

COC1(Cc2ccccc2)C(=O)c2ccccc2N1C(C)=O (stereo not drawn)
inactive: SW-620 > 100 µM | A549 > 100 µM | SF-295 > 100 µM | HOP-62 > 100 µM | SNB-75 > 100 µM | HT-29 > 100 µM | OVCAR-3 > 100 µM | XF498 > 100 µM | A498 > 100 µM | HOP-92 > 100 µM | NCI-H460 > 100 µM | OVCAR-8 > 100 µM | OVCAR-4 > 100 µM | SNB-78 > 100 µM | U-251 > 100 µM | UACC-257 > 100 µM | DMS-273 > 100 µM | UO-31 > 100 µM | HCC 2998 > 100 µM | COLO 205 > 100 µM | RPMI-8226 > 100 µM | RXF 631 > 100 µM | NCI-H23 > 100 µM | HCT-116 > 100 µM | LXFL 529 > 100 µM | M19-MEL > 100 µM | SN12C > 100 µM | M14 > 100 µM | KM12 > 100 µM | RXF 393 > 100 µM | IGROV-1 > 100 µM | SK-MEL-28 > 100 µM | UACC-62 > 100 µM | CCRF-CEM > 100 µM | HL-60 > 100 µM | EKVX > 100 µM | MOLT-4 > 100 µM | SK-MEL-2 > 100 µM | DMS-114 > 100 µM | K562 > 100 µM | ACHN > 100 µM | 786-0 > 100 µM | DLD-1 > 100 µM | SR > 100 µM | CAKI-1 > 100 µM | SNB-19 > 100 µM | KM-20L2 > 100 µM | HOP-18 > 100 µM | SF-539 > 100 µM | SK-OV-3 > 100 µM
> 100 µM: HCT-15

CCc1cccc(CC)c1NC(=O)C(C#N)C1=C(Cl)C(=O)c2ccccc2C1=O (stereo not drawn)
20.6 µM: HCT-15
active: Hs-578T < 0.01 µM
inactive: SW-620 9.33 µM | A549 18.5 µM | DU-145 16.8 µM | SF-295 15.7 µM | HOP-62 14.5 µM | SNB-75 5.18 µM | HT-29 19.9 µM | OVCAR-3 16.8 µM | XF498 15.9 µM | A498 19 µM | PC-3 13 µM | BT-549 12.4 µM | MDA-MB-435 14.5 µM | HOP-92 2.96 µM | MDA-MB-231 5.55 µM | NCI-H460 22.6 µM | OVCAR-8 19.8 µM | OVCAR-4 16.6 µM | SNB-78 8.15 µM | U-251 15.3 µM | UACC-257 17.4 µM | NCI-H522 8.55 µM | DMS-273 17.9 µM | UO-31 11.8 µM | HCC 2998 16.9 µM | COLO 205 20.3 µM | RPMI-8226 4.56 µM | RXF 631 16.1 µM | NCI-H23 13 µM | Malme-3M 9.23 µM | HCT-116 15.9 µM | LXFL 529 16.1 µM | M19-MEL 19.1 µM | SN12C 16.7 µM | M14 16.8 µM | TK-10 21.2 µM | SK-MEL-5 14.7 µM | MDA-N 16.7 µM | MCF7 14.6 µM | T47D 3.79 µM | KM12 18.9 µM | RXF 393 16.3 µM | IGROV-1 17.8 µM | OVCAR-5 18.8 µM | SK-MEL-28 20.6 µM | UACC-62 17.5 µM | CCRF-CEM 1.33 µM | HL-60 1.3 µM | EKVX 21.1 µM | MOLT-4 1.53 µM | SK-MEL-2 18.8 µM | DMS-114 22 µM | LOX IMVI 12.7 µM | K562 2.33 µM | NCI-H226 15 µM | ACHN 16.4 µM | 786-0 16.4 µM | SF-268 16.6 µM | DLD-1 17.4 µM | SR 1.2 µM | CAKI-1 15.6 µM | SNB-19 18.1 µM | KM-20L2 21.4 µM | HOP-18 15.5 µM | SF-539 11.3 µM | SK-OV-3 19.7 µM
